Assay results taken from patent US20240382471A1, “GLUCAGON-LIKE PEPTIDE-1 RECEPTOR MODULATORS AND USES THEREOF” (HEPAGENE THERAPEUTICS (HK) LIMITED, priority 2021, published 2024).

The compounds below were run against GLP1R (Homo sapiens, UniProt P43220) (assay: GLP1R cAMP assay (HTRF cAMP detection, agonist activity)). Details: Flp-In-293-GLP1R cells, 30 min at 37° C., read-out: EC50 (nM) Assay 1.
Assay type: cell-based
Parameters: host or cells: Flp-In-293
Description: GLP1R-mediated agonist activity was determined with a cell-based functional assay utilizing an HTRF (Homogeneous Time-Resolved Fluorescene) cAMP detection kit that measures CAMP levels in the cell. Reagents and equipment used in the assay are listed below, followed by the protocol.
• 1) Cell Line: Flp-In-293-GLP1R (constructed by Pharmaron Beijing Co., Ltd) • 2) Complete Medium: DMEM+10% FBS+1×Penicillin-Streptomycin+200 μg/mL HB • 3) Assay Buffer: 1×HBSS+20 mM HEPES+0.1% BSA+500 μM IBMX
• a) Seed Flpin-293-GLP1R cells at 20,000 cells/well into 384 well assay plate (6007680-50, PE) using complete medium. • b) Prepare 4×compound working solution with assay buffer. • c) Add 5 μL 4×compound working solution into cell plate, incubate 30 min at 37° C. • d) Dilute Eu-cAMP tracer (1/50) with lysis buffer and add 10 μl/well to assay plate. • e) Dilute Ulight-anti-cAMP (1/150) with lysis buffer and add 10 μl/well to assay plate. • f) Incubate 1 h at RT. • g) Read the plate at wavelengths of 665 nm and 615 nm on Envision 2105 plate reader.
• 3.1% Activity is calculated as follow:
% Activity=100−(Signalcmpd−SignalAve_PC)/(SignalAve_VC−SignalAve_PC)×100. • 3.2 Calculate EC50 and Plot effect-dose curve of cmpds:
Y=Bottom+(Top−Bottom)/(1+10^((Log EC50−X)*Hill Slope)) • X: log of agonist concentration; Y: % Activity.

GLP1R, sequence (P43220 24-463, species assumed): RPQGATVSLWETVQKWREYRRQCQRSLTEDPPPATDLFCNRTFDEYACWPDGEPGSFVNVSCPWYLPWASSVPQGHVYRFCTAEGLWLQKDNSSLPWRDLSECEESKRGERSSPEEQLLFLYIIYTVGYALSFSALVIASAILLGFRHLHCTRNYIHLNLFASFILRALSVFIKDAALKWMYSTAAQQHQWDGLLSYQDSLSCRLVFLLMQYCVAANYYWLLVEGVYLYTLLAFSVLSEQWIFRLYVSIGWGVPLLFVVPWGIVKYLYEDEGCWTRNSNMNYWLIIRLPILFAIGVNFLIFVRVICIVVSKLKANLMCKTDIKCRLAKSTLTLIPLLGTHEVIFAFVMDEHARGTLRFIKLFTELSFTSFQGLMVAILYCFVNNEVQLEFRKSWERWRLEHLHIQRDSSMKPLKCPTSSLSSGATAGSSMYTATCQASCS

For N#Cc1ccc(COc2ncccc2N2CC3CCC(C2)N3Cc2nc3ccc(C(=O)O)cc3n2C[C@@H]2CCO2)c(F)c1 [Compound 2-16, 2-[(3-{2-[(4-cyano-2-fluorophenyl)methoxy]pyridin-3-yl}-3,8-diazabicyclo[3.2.1]octan-8-yl)methyl]-3-[(2S)-oxetan-2-ylmethyl]-1,3-benzodiazole-5-carboxylic acid], which EC50 is on record?
Its EC50 is greater than 4 nM.

With O=C(O)c1ccc2nc(CN3C4CCC3CN(c3cccnc3OCc3ccc(Cl)cc3F)C4)n(C[C@@H]3CCO3)c2c1 [Compound 2-17, 2-[(3-{2-[(4-chloro-2-fluorophenyl)methoxy]pyridin-3-yl}-3,8-diazabicyclo[3.2.1]octan-8-yl)methyl]-3-[(2S)-oxetan-2-ylmethyl]-1,3-benzodiazole-5-carboxylic acid] as the compound, how does the EC50 read?
The EC50 was greater than 4 nM.

Which EC50 does the source give for N#Cc1ccc(COc2cccc(N3CC4CCC(C3)N4Cc3nc4ccc(C(=O)O)cc4n3C[C@@H]3CCO3)c2)c(F)c1 [Compound 2-18, 2-((−3-(3-((4-cyano-2-fluorobenzyl)oxy)phenyl)-3,8-diazabicyclo[3.2.1]octan-8-yl)methyl)-1-(((S)-oxetan-2-yl)methyl)-1H-benzo[d]imidazole-6-carboxylic acid] here?
Its EC50 is 1.17 nM.

How did the EC50 turn out when N#Cc1ccc(COc2cccc(N3CC4CN(Cc5nc6ccc(C(=O)O)cc6n5C[C@@H]5CCO5)CC4C3)n2)c(F)c1 (stereo partly drawn) [Compound 2-20, 2-[(5-{6-[(4-cyano-2-fluorophenyl)methoxy]pyridin-2-yl}-hexahydropyrrolo[3,4-c]pyrrol-2-yl)methyl]-3-[(2S)-oxetan-2-ylmethyl]-1,3-benzodiazole-5-carboxylic acid] was run?
Its EC50 is 1.84 nM.

How did the EC50 turn out when N#Cc1ccc(COc2cccc(N3CC4CN(Cc5nc6ccc(C(=O)O)cc6n5CC5CCO5)CC4C3)n2)c(F)c1 (stereo not shown) [Compound 2-21, 2-[(5-{6-[(4-cyano-2-fluorophenyl)methoxy]pyridin-2-yl}-hexahydropyrrolo[3,4-c]pyrrol-2-yl)methyl]-3-(oxetan-2-ylmethyl)-1,3-benzodiazole-5-carboxylic acid] was run?
Its EC50 is greater than 4 nM.

For N#Cc1ccc(COc2cccc(N3CC4CN(Cc5nc6ccc(C(=O)O)cc6n5C[C@@H]5CCO5)CC4C3)n2)cc1 (stereo partly drawn) [Compound 2-22, 2-((5-(6-((4-cyanobenzyl)oxy)pyridin-2-yl)hexahydropyrrolo[3,4-c]pyrrol-2 (1H)-yl)methyl)-1-(((S)-oxetan-2-yl)methyl)-1H-benzo[d]imidazole-6-carboxylic acid], which EC50 is on record?
Its EC50 is 2 nM.

N#Cc1ccc(COc2cccc(N3CC4CN(Cc5nc6ccc(C(=O)O)cc6n5C[C@@H]5CCCO5)CC4C3)n2)c(F)c1 (stereo partly drawn) [Compound 2-23, 2-[(5-{6-[(4-cyano-2-fluorophenyl)methoxy]pyridin-2-yl}-hexahydropyrrolo[3,4-c]pyrrol-2-yl)methyl]-3-[(2S)-oxolan-2-ylmethyl]-1,3-benzodiazole-5-carboxylic acid] was tested. Which EC50 did it give?
The EC50 was greater than 4 nM.

Which EC50 does the source give for N#Cc1ccc(COc2cccc(N3CC4CN(Cc5nc6ccc(C(=O)O)cc6n5CC5CCOC5)CC4C3)n2)c(F)c1 (stereo not shown) [Compound 2-24, 2-[(5-{6-[(4-cyano-2-fluorophenyl)methoxy]pyridin-2-yl}-hexahydropyrrolo[3,4-c]pyrrol-2-yl)methyl]-3-(oxolan-3-ylmethyl)-1,3-benzodiazole-5-carboxylic acid] here?
Its EC50 is 3.05 nM.

How did the EC50 turn out when N#Cc1ccc(COc2cccc(N3CC4CN(Cc5nc6ccc(C(=O)O)cc6n5Cc5cocn5)CC4C3)n2)c(F)c1 (stereo not shown) [Compound 2-25, 2-[(5-{6-[(4-cyano-2-fluorophenyl)methoxy]pyridin-2-yl}-hexahydropyrrolo[3,4-c]pyrrol-2-yl)methyl]-3-(1,3-oxazol-4-ylmethyl)-1,3-benzodiazole-5-carboxylic acid] was run?
Its EC50 is 1.7 nM.

N#Cc1ccc(COc2cccc(N3CC4CN(Cc5nc6ccc(C(=O)O)cc6n5Cc5ncco5)CC4C3)n2)c(F)c1 (stereo not shown) [Compound 2-26, 2-[(5-{6-[(4-cyano-2-fluorophenyl)methoxy]pyridin-2-yl}-hexahydropyrrolo[3,4-c]pyrrol-2-yl)methyl]-3-(1,3-oxazol-2-ylmethyl)-1,3-benzodiazole-5-carboxylic acid] was tested. Which EC50 did it give?
Its EC50 is greater than 4 nM.

O=C(O)c1ccc2nc(CN3CC4CN(c5cccc(OCc6ccc(Cl)cc6F)n5)CC4C3)n(C[C@@H]3CCO3)c2c1 (stereo partly drawn) [Compound 2-27, 2-((5-(6-((4-chloro-2-fluorobenzyl)oxy)pyridin-2-yl)hexahydropyrrolo[3,4-c]pyrrol-2 (1H)-yl)methyl)-1-(((S)-oxetan-2-yl)methyl)-1H-benzo[d]imidazole-6-carboxylic acid] was tested. Which EC50 did it give?
The EC50 was greater than 4 nM.

For O=C(O)c1ccc2nc(CN3CC4CN(c5cccc(OCc6ccc(F)cc6F)n5)CC4C3)n(C[C@@H]3CCO3)c2c1 (stereo partly drawn) [Compound 2-28, 2-[(5-{6-[(2,4-difluorophenyl)methoxy]pyridin-2-yl}-hexahydropyrrolo[3,4-c]pyrrol-2-yl)methyl]-3-[(2S)-oxetan-2-ylmethyl]-1,3-benzodiazole-5-carboxylic acid], which EC50 is on record?
The EC50 was greater than 4 nM.

Which EC50 does the source give for N#Cc1ccc(COc2cccc(N3C4CCC3CN(Cc3nc5ccc(C(=O)O)cc5n3Cc3ncco3)C4)n2)c(F)c1 [Compound 2-31, 2-[(8-{6-[(4-cyano-2-fluorophenyl)methoxy]pyridin-2-yl}-3,8-diazabicyclo[3.2.1]octan-3-yl)methyl]-3-(1,3-oxazol-2-ylmethyl)-1,3-benzodiazole-5-carboxylic acid] here?
The EC50 was 1.5 nM.

Which EC50 does the source give for N#Cc1ccc(COc2cccc(N3C4CCC3CN(Cc3nc5ccc(C(=O)O)cc5n3C[C@@H]3CCCO3)C4)n2)c(F)c1 [Compound 2-32, 2-((−8-(6-((4-cyano-2-fluorobenzyl)oxy)pyridin-2-yl)-3,8-diazabicyclo[3.2.1]octan-3-yl)methyl)-1-(((S)-tetrahydrofuran-2-yl)methyl)-1H-benzo[d]imidazole-6-carboxylic acid] here?
The EC50 was 3.25 nM.

How did the EC50 turn out when N#Cc1ccc(COc2cccc(N3C4CCC3CN(Cc3nc5ccc(C(=O)O)cc5n3CC3CCOC3)C4)n2)c(F)c1 (stereo not shown) [Compound 2-33, 2-[(8-{6-[(4-cyano-2-fluorophenyl)methoxy]pyridin-2-yl}-3,8-diazabicyclo[3.2.1]octan-3-yl)methyl]-3-(oxolan-3-ylmethyl)-1,3-benzodiazole-5-carboxylic acid] was run?
The EC50 was greater than 4 nM.

With O=C(O)c1ccc2nc(CN3CC4CCC(C3)N4c3cccc(OCc4ccccc4F)n3)n(C[C@@H]3CCO3)c2c1 [Compound 2-36, 2-((−8-(6-((2-fluorobenzyl)oxy)pyridin-2-yl)-3,8-diazabicyclo[3.2.1]octan-3-yl)methyl)-1-(((S)-oxetan-2-yl)methyl)-1H-benzo[d]imidazole-6-carboxylic acid] as the compound, how does the EC50 read?
The EC50 was greater than 4 nM.

Which EC50 does the source give for Cc1ccc(COc2cccc(N3C4CCC3CN(Cc3nc5ccc(C(=O)O)cc5n3C[C@@H]3CCO3)C4)n2)c(F)c1 [Compound 2-37, 2-((−8-(6-((2-fluoro-4-methylbenzyl)oxy)pyridin-2-yl)-3,8-diazabicyclo[3.2.1]octan-3-yl)methyl)-1-(((S)-oxetan-2-yl)methyl)-1H-benzo[d]imidazole-6-carboxylic acid] here?
The EC50 was 0.929 nM.

With N#Cc1ccc(COc2cccc(N3C4CCC3CN(Cc3nc5ccc(C(=O)O)cc5n3C[C@@H]3CCO3)C4)n2)cc1 [Compound 2-38, 2-((8-(6-((4-cyanobenzyl)oxy)pyridin-2-yl)-3,8-diazabicyclo[3.2.1]octan-3-yl)methyl)-1-(((S)-oxetan-2-yl)methyl)-1H-benzo[d]imidazole-6-carboxylic acid] as the compound, how does the EC50 read?
Its EC50 is 0.458 nM.

How did the EC50 turn out when O=C(O)c1ccc2nc(CN3CC4CCC(C3)N4c3cccc(OCc4ccc(Cl)cc4F)n3)n(C[C@@H]3CCO3)c2c1 [Compound 2-39, 2-[(8-{6-[(4-chloro-2-fluorophenyl)methoxy]pyridin-2-yl}-3,8-diazabicyclo[3.2.1]octan-3-yl)methyl]-3-[(2S)-oxetan-2-ylmethyl]-1,3-benzodiazole-5-carboxylic acid] was run?
The EC50 was 0.346 nM.

O=C(O)c1ccc2nc(CN3CC4CCC(C3)N4c3cccc(OCc4ccncc4F)n3)n(C[C@@H]3CCO3)c2c1 [Compound 2-40, 2-((−8-(6-((3-fluoropyridin-4-yl)methoxy)pyridin-2-yl)-3,8-diazabicyclo[3.2.1]octan-3-yl)methyl)-1-(((S)-oxetan-2-yl)methyl)-1H-benzo[d]imidazole-6-carboxylic acid] was tested. Which EC50 did it give?
Its EC50 is greater than 4 nM.

How did the EC50 turn out when O=C(O)c1ccc2nc(CN3CC4CCC(C3)N4c3cccc(OCc4ccncc4)n3)n(C[C@@H]3CCO3)c2c1 [Compound 2-41, 3-[(2S)-oxetan-2-ylmethyl]-2-({8-[6-(pyridin-4-ylmethoxy)pyridin-2-yl]-3,8-diazabicyclo[3.2.1]octan-3-yl}methyl)-1,3-benzodiazole-5-carboxylic acid] was run?
Its EC50 is greater than 4 nM.

How did the EC50 turn out when CS(=O)(=O)NC(=O)c1ccc2nc(CN3CC4CCC(C3)N4c3cccc(OCc4ccc(C#N)cc4F)n3)n(C[C@@H]3CCO3)c2c1 [Compound 2-42, 2-((−8-(6-((4-cyano-2-fluorobenzyl)oxy)pyridin-2-yl)-3,8-diazabicyclo[3.2.1]octan-3-yl)methyl)-N-(methylsulfonyl)-1-(((S)-oxetan-2-yl)methyl)-1H-benzo[d]imidazole-6-carboxamide] was run?
Its EC50 is greater than 4 nM.
